According to article PMC10174618, “Monoterpenoid aryl hydrocarbon receptor allosteric antagonists protect against ultraviolet skin damage in female mice” (Nature Communications, 2023):

Assays:
Assay in all cases: biochemical
Set-up in all cases: KINOMEscan scanMAX active site-directed competition binding assay, percent of control, 468 kinases
Conditions in all cases: competition binding, percent of control
SRC = SRC (Homo sapiens, UniProt P12931)
Description: (§1) The KINOMEscan^TM screening platform (scanMAX assay) employs a proprietary active site-directed competition binding assay that quantitatively measures the interactions between test compounds (here 100 μM S-carvone) and 468 human protein kinases. The assay was performed at Eurofins DiscoverX Corp. (Fremont, CA, USA). Blocking protein kinase C (PKC) activity was reported to inhibit the transcription of CYP1A1 but to exert no effect on the nuclear translocation of AhR[26], which was also the case here with carvones. Therefore, we tested whether carvones inhibit PKC catalytic activity. […] We also evaluated the interaction between 100 μM S-carvone and 468 human protein kinases, employing KINOMEscan^TM (scanMAX assay), a proprietary active site-directed competition binding assay. The minimal inhibitory threshold used by the screening platform KINOMEscan^TM is 35% of the control kinase activity. Among 468 kinases tested, 467 were above the 35% cutoff. Tyrosine kinase 2 TK2 (JH2 domain pseudokinase) activity was inhibited to 27% of the control activity, but this kinase is not relevant to the regulation of transcription activity (Fig. 5B; Figure S9). Overall, we excluded the possibility that the effects of carvones on AhR signaling are caused indirectly by the inhibition of the human kinome, particularly PKC.

MAP3K3 = MAP3K3 (Homo sapiens, UniProt Q99759)
MAP3K3, sequence (Q99759 whole entry): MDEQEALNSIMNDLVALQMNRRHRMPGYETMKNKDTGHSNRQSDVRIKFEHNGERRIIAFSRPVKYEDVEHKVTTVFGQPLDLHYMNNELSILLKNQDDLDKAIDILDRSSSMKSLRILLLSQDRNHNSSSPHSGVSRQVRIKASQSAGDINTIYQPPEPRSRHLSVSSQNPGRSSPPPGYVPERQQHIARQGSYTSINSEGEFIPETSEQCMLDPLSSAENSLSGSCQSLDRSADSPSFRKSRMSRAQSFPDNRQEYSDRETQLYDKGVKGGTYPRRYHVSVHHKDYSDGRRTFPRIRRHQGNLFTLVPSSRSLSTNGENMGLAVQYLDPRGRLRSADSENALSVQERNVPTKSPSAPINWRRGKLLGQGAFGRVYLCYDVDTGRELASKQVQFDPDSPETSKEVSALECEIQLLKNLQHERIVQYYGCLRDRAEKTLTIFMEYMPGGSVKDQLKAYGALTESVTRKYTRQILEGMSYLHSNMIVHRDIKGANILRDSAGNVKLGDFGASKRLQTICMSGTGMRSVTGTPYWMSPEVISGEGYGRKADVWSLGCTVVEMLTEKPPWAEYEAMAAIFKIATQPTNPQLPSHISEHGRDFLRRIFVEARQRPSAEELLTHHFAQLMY
Description: as §1

NEK3 = NEK3 (Homo sapiens, UniProt P51956)
NEK3, sequence (P51956 whole entry): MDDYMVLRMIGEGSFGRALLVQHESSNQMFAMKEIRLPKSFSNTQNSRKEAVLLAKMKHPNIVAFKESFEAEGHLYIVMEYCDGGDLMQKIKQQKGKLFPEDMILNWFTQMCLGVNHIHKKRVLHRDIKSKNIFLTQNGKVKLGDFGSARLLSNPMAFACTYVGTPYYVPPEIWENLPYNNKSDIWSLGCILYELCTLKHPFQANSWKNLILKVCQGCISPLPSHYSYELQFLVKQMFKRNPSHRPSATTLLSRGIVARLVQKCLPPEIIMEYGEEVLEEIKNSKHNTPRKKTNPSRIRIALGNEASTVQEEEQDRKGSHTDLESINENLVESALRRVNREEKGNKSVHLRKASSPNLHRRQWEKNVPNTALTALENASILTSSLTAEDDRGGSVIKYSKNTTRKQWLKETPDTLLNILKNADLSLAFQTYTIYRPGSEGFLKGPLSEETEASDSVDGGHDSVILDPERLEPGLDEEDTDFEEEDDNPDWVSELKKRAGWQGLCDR
Description: as §1

ALK(L1196M) = ALK(L1196M) (Homo sapiens, UniProt Q9UM73, L1196M)
ALK(L1196M), sequence (Q9UM73 whole entry L1196M): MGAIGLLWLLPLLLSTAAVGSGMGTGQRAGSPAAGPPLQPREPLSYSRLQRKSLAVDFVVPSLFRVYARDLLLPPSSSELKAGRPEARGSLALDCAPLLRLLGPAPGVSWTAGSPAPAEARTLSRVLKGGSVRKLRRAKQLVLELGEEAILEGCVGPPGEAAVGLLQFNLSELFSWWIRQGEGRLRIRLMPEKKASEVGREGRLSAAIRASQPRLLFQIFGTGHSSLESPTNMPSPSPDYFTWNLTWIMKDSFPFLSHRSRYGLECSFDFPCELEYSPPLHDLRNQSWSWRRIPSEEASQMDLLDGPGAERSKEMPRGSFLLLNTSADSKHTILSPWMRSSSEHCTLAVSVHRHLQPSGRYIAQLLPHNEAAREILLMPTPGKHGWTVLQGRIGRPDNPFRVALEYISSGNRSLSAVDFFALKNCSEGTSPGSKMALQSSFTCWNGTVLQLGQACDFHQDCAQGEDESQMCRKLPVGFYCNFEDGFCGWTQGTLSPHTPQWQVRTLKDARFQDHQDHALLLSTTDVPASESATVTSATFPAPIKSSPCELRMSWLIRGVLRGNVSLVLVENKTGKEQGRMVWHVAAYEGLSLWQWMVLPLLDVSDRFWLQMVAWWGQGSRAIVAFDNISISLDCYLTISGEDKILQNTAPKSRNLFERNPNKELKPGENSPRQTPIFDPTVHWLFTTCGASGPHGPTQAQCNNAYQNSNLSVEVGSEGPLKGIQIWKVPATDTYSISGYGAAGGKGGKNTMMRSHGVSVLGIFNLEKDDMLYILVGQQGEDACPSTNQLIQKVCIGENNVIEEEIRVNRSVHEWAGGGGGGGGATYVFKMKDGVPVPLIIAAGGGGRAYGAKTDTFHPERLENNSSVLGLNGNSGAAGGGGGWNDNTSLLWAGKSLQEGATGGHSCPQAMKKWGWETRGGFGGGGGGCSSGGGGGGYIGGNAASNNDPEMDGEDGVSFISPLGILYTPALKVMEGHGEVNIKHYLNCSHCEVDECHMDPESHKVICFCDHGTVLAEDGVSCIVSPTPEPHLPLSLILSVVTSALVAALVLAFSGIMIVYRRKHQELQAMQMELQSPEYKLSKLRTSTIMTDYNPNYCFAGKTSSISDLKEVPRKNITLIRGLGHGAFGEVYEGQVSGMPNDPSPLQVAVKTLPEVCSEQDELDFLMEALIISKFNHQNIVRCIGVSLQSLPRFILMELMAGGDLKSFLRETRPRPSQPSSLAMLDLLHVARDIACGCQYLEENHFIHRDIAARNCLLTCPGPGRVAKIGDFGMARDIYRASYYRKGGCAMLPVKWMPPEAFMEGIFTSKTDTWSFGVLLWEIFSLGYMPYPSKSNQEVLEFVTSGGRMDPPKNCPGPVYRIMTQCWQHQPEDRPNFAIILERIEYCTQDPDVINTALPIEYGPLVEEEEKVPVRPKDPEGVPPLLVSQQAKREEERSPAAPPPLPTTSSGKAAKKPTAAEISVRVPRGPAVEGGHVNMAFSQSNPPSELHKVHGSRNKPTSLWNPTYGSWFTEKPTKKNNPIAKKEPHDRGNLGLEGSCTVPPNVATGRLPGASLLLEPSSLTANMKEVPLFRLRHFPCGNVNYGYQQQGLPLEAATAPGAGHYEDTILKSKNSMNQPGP
Description: as §1

BRAF(V600E) = BRAF(V600E) (Homo sapiens, UniProt P15056, V600E)
Description: as §1

MELK = MELK (Homo sapiens, UniProt Q14680)
Description: as §1

TRKA = molecular target: T1, TRKA (Homo sapiens, UniProt P04629)
T1 construct: gene NTRK1
Description: as §1

TBK1 = TBK1 (Homo sapiens, UniProt Q9UHD2)
Description: as §1

ERBB2 = ERBB2 (Homo sapiens, UniProt P04626)
Description: as §1

MET(Y1235D) = MET(Y1235D) (Homo sapiens, UniProt P08581, Y1235D)
Description: as §1

MEK3 = molecular target: T2, MEK3 (Homo sapiens, UniProt P46734)
T2 construct: gene MAP2K3
T2 sequence (P46734 whole entry): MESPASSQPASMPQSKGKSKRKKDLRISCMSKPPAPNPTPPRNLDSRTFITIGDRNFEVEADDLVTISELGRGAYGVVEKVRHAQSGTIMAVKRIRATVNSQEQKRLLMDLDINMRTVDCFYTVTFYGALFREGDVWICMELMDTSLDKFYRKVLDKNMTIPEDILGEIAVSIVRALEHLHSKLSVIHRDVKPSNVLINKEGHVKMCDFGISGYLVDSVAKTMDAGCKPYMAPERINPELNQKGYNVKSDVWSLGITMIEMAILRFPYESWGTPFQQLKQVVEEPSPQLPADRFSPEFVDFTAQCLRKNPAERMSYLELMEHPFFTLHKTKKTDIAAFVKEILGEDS
Description: as §1

KIT(A829P) = KIT(A829P) (Homo sapiens, UniProt P10721, A829P)
Description: as §1

INSRR = INSRR (Homo sapiens, UniProt P14616)
Description: as §1

ERK1 = molecular target: T3, ERK1 (Homo sapiens, UniProt P27361)
T3 construct: gene MAPK3
T3 sequence (P27361 whole entry): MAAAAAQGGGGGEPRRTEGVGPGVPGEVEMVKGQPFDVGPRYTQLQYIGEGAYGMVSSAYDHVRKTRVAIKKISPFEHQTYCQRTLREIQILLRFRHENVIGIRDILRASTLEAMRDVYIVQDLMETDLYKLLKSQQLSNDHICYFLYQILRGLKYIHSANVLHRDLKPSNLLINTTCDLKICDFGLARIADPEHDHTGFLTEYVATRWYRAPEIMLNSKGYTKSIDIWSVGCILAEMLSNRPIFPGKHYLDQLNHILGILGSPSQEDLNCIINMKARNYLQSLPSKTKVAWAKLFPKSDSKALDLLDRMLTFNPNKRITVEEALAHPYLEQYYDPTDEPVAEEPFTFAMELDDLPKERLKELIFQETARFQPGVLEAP
Description: as §1

CLK1 = CLK1 (Homo sapiens, UniProt P49759)
Description: as §1

EGFR(G719S) = EGFR(G719S) (Homo sapiens, UniProt P00533, G719S)
Description: as §1

TSSK1B = TSSK1B (Homo sapiens, UniProt Q9BXA7)
TSSK1B, sequence (Q9BXA7 whole entry): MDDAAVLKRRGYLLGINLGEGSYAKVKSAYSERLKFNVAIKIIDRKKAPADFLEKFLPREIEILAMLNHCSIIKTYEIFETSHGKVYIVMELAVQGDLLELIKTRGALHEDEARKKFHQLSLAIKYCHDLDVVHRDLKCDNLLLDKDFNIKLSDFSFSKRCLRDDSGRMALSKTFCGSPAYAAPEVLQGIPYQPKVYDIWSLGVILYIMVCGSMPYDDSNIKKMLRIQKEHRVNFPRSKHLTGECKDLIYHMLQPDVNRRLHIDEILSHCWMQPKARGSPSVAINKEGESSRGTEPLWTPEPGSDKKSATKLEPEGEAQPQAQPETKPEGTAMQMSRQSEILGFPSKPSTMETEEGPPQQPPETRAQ
Description: as §1

PRKD2 = PRKD2 (Homo sapiens, UniProt Q9BZL6)
Description: as §1

KIT(V559D,T670I) = KIT(V559D,T670I) (Homo sapiens, UniProt P10721, T670I/V559D)
Description: as §1

MLK1 = molecular target: T4, MLK1 (Homo sapiens, UniProt P80192)
T4 construct: gene MAP3K9
T4 sequence (P80192 whole entry): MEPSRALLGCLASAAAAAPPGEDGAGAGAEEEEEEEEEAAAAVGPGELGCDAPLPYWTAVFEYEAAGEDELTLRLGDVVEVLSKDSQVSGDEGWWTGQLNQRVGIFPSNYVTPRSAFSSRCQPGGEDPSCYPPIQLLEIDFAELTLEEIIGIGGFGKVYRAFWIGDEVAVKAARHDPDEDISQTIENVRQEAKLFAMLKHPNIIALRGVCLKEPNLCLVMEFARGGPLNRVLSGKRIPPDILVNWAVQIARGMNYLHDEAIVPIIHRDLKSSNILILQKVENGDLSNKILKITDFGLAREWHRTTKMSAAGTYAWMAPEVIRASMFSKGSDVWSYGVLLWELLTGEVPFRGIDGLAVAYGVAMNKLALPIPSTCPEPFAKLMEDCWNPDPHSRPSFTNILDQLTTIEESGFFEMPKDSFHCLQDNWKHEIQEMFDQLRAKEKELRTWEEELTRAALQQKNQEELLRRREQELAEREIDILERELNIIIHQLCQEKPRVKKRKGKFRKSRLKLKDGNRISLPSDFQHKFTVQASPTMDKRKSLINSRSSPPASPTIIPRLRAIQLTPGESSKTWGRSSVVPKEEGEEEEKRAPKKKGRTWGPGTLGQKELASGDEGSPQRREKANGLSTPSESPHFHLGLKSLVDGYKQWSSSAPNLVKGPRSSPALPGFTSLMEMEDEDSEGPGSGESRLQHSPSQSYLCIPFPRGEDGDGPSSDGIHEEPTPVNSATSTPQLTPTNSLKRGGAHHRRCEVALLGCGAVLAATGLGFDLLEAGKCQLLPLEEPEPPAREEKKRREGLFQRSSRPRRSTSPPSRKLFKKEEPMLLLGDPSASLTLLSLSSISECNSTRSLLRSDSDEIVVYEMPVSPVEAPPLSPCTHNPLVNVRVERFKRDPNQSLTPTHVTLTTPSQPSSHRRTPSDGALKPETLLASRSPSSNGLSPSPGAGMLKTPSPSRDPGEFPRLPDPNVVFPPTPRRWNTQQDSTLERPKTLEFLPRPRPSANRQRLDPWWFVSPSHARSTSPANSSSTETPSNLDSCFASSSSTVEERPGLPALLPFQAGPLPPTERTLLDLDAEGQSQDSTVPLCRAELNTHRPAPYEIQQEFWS
Description: as §1

YSK4 = molecular target: T5, YSK4 (Homo sapiens, UniProt Q56UN5)
T5 construct: gene MAP3K19
Description: as §1

remaining binding at 100 µM (SRC): 77% | remaining binding at 100 µM (MAP3K3): 54% | remaining binding at 100 µM (NEK3): 49% | remaining binding at 100 µM (ALK(L1196M)): 71% | remaining binding at 100 µM (BRAF(V600E)): 90% | remaining binding at 100 µM (MELK): 99% | remaining binding at 100 µM (TRKA): 82% | remaining binding at 100 µM (TBK1): 64% | remaining binding at 100 µM (ERBB2): 83% | remaining binding at 100 µM (MET(Y1235D)): 87% | remaining binding at 100 µM (MEK3): 84% | remaining binding at 100 µM (KIT(A829P)): 84% | remaining binding at 100 µM (INSRR): 84% | remaining binding at 100 µM (ERK1): 75% | remaining binding at 100 µM (CLK1): 94% | remaining binding at 100 µM (EGFR(G719S)): 72% | remaining binding at 100 µM (TSSK1B): 95% | remaining binding at 100 µM (PRKD2): 100% | remaining binding at 100 µM (KIT(V559D,T670I)): 91% | remaining binding at 100 µM (MLK1): 92% | remaining binding at 100 µM (YSK4): 61%
Compound: C=C(C)[C@H]1CC=C(C)C(=O)C1 [S-carvone]
